Measurements published in PMC12731105, “Design and Synthesis of New Quinoxaline Analogs to Regenerate Sensory Auditory Hair Cells” (Cells, 2025).
Where two headings read alike, the source gives them in different places.

What was measured:
[1] = Cytotoxicity, MTT colorimetric microculture assay; format: cell-based; settings: mouse, HEI-OC1 cells (auditory cell line), NCI criterion of cytotoxicity IC50 < 20 μg/mL
Method: The cytotoxicity of Qx-294 and Qx-301 compounds was assessed in the mouse auditory HEI-OC1 cell line using the (MTT) colorimetric microculture assay method as previously described. HEI-OC1 cells were cultured in DMEM (Corning, NY, USA, 10-013-CVC) supplemented with 10% fetal bovine serum (FBS) (Pansera) and 50 μg/mL ampicillin for 12 h. For cytotoxic assessment, increasing concentrations of Qx-294 and Qx-301 were added to a HEI-OC1 cell suspension (5 × 10^4 cells/well). Cell growth was determined 72 h later by adding 50 µL of MTT (2.5 mg/mL). This was reduced by mitochondrial dehydrogenase of viable cells in an insoluble blue formazan product during the 4 h contact period at 37 °C. After the supernatant was removed, the formazan crystals were solubilized by adding DMSO (100 µL). These plates were read at 570 nm with SpectraMax® M Series Multi-Mode Microplate Reader with Soft Max Pro 7.2 GxP Software (Molecular Devices, Sunnyvale, CA, USA). At each dose level of the compounds tested, as well as the untreated (vehicle-only) controls, absorbance values were recorded and compared between different treatment and time points to assess cell growth and viability.

HT-1080 = experiment: TACS MTT cell proliferation / metabolic activity assay in HT-1080; format: cell-based, human; settings: HT-1080, 0.1 to 100 μM
Method: HEI-OC1 cells derived from the mouse OC (kindly provided by Dr. F. Kalinec) were cultured under permissive conditions (33 °C, 10% CO2) as described in [22]. Additionally, we assessed the activity of Qx-derived compounds in the mouse neuroblastoma cell line, Neuro-2A, and the human fibrosarcoma HT-1080 (ATCC, Manassas, VA, USA) following the standard cell culture guidelines provided by the vendor.
In vitro cell proliferation effects of all ten initial compounds (Figure 1A,B) were tested on HEI-OC1, Neuro-2A and HT-1080 cells by TACS® 3-(4,5-dimethylthiazol-2-yl)-2,5-diphenyltetrazolium bromide (MTT) Cell Proliferation Assay (R&D Systems, Minneapolis, MN, USA, 4890-025-K), following the manufacturer’s protocol. Absorbance was measured with SpectraMax® M Series Multi-Mode Microplate Reader with Soft Max Pro 7.2 GxP Software (Molecular Devices, Sunnyvale, CA, USA), and the average OD in control cells was taken as 100% of viability. Upon selecting the most viable compounds (Qx-294 and Qx-301), we proceeded with in vivo experiments. For zebrafish treatment, animals were incubated for varied times with different concentrations (50, 100, 150, 200, 250, and 300 μg/mL) of Qx-294 or Qx-301 diluted in swimming (E3) media or administered via IP injections. Mice treatment followed the same procedures as described in [18]. Following treatment, animals or tissue samples were incubated in Click-it EdU or Click-it Plus TUNEL kits (Thermo Scientific, Waltham, MA, USA), following the manufacturer’s instructions to label proliferating and apoptotic cells, respectively.

PAMPA permeability assay = format: in vitro ADME
Method: The parallel artificial membrane permeability assay (PAMPA), an artificial membrane that simulates a biological membrane, was used. A 96-well membrane filter-based microtiter plate system with donor and acceptor compartments separated by the membrane was employed. The compounds were dissolved in 5% DMSO in phosphate-buffered saline (PBS) solution with Lucifer yellow, a dye used to assess membrane integrity. The solution was placed in the donor well, and PBS was added to the acceptor well. The membrane was generated by dissolving lecithin in an inert organic solvent and placed onto a hydrophobic PVDF filter.

mouse organ of Corti = experiment: TUNEL assay in the mouse organ of Corti; format: in vivo; settings: mice, any treatment group (24, 48, 72 h)
Method: (§1) C57BL/6J male and female mice between postnatal day 24 and 30 P-24-30) were randomized into control and experimental groups (9 mice per group per compound), with each experimental group receiving a single intraperitoneal (IP) injection of Qx-294 or Qx-301 at a dose of 300 mg/kg body weight, dissolved in dimethyl sulfoxide (DMSO). Controls consisted of treatment with DMSO alone (vehicle). A total of 90 adult wild-type C57/BL6 mice were used in this study. Based on the analysis, animals were examined at various times following treatment as described below.
In vitro cell proliferation effects of all ten initial compounds (Figure 1A,B) were tested on HEI-OC1, Neuro-2A and HT-1080 cells by TACS® 3-(4,5-dimethylthiazol-2-yl)-2,5-diphenyltetrazolium bromide (MTT) Cell Proliferation Assay (R&D Systems, Minneapolis, MN, USA, 4890-025-K), following the manufacturer’s protocol. Absorbance was measured with SpectraMax® M Series Multi-Mode Microplate Reader with Soft Max Pro 7.2 GxP Software (Molecular Devices, Sunnyvale, CA, USA), and the average OD in control cells was taken as 100% of viability. Upon selecting the most viable compounds (Qx-294 and Qx-301), we proceeded with in vivo experiments. […]

mouse organ of Corti HCs = experiment: M7a immunolabeling and HC counts in the mouse organ of Corti; format: in vivo; settings: mice, single IP 300 mg/kg; for OHC and IHC numbers vs control, 48–72 h: p < 0.05; for Supernumerary M7a-positive cells vs control, 24 h: 24 h post-treatment; for HC numbers in the apex: apical turn
Method: as §1
Cochlear dissection in mice and immunofluorescence experiments on zebrafish neuromasts and mouse cochleae were performed as previously described. The antibody and labeling kits used in this study included Otoferlin (Developmental Studies Hybridoma Bank, Iowa City, IA, USA, HCS-1), GFP (Novus Biologicals, NB100-1614), and rabbit anti-myosin VIIa (M7a) (Thermo Scientific, Waltham, MA, USA, PA1-936). Species-specific Alexa Fluor-conjugated secondary antibodies were used for detection. Phalloidin conjugated to Alexa 488 (Thermo Scientific, Waltham, MA, USA, O7466) and DAPI were used for labeling stereocilia and the nucleus, respectively.
Cell numbers in mouse cochleae or fish, as well as fish neuromast morphologies, were evaluated in 25 zebrafish per drug and treatment group across three experimental runs. For mouse analyses, 18 cochleae (from 9 mice) per treatment and three experimental repetitions were examined. Images were analyzed at 200X magnification, obtained from different neuromasts and cochlear regions (apex, middle, and base). HCs were quantified in the mouse OC by counting M7a-positive cells, with HC identity further confirmed by phalloidin-labeled stereocilia. Apoptosis and cell proliferation events, on the other hand, were quantified by counting TUNEL- and EdU-positive cells, respectively. Counts were obtained from three randomly selected microscopic fields for each cochlear region, covering at least 1200 μm in total. The number of HCs (IHCs and OHCs) is expressed as units per 200 μm. Cell counting was performed in a double-blind and unbiased manner. A laboratory member conducted the experiments, while another person, who was unaware of the treatment groups to which the cochlea belonged, performed the cell counts. IHCs and OHCs were counted on reconstructed confocal stacks using NIH ImageJ v1.8.0 software. The presence of an HC was defined as an intact, spherical nucleus located in the basal half of an M7a-positive cell. The same person who performed the initial counts recounted a select group of cochleae to determine an intra-rater reliability measure. We used intra-class correlations (ICC) to assess the reliability of the data sets. Reliability statistics were calculated in SPSS v22.0. We used an intra-class correlation coefficient of ≥0.7 to measure strong absolute agreement between the two sets of HC counts being compared. Statistical comparisons between animal groups and treatments were performed using Two-Way ANOVA or Kruskal–Wallis test with post hoc Bonferroni correction for multiple comparisons. Values are presented as ± standard deviation (SD) of the mean. Fluorescence incorporation following treatment with FM1-43 was quantified according to [19] using ImageJ. An unpaired T-test was used to compare the means between treatment groups. p < 0.05 was considered significant. Qx treatments were compared to vehicle-only (control) animals.

Row | Permeability (PAMPA permeability assay; 16 h incubation) | Papp at 16 h (PAMPA permeability assay; read-out: PAMPA permeability) | Papp at 16 h (PAMPA permeability assay; 16 h incubation, read-out: Permeability) | Compound | IC50 at 72 h [1] | Proliferative state across all tested concentrations (HT-1080) | Apoptosis (TUNEL) in the OC (mouse organ of Corti) | OHC and IHC numbers vs control, 48–72 h (mouse organ of Corti HCs) | Supernumerary M7a-positive cells vs control, 24 h (mouse organ of Corti HCs) | HC numbers in the apex (mouse organ of Corti HCs)
1 | 3.5 ± 3.0 ×10^−6 cm/s^−1 | ~3.5 ×10⁻⁶ cm/s | – | c1ccc2nc(N3CCOCC3)cnc2c1 [Qx-294, 2-(morpholine)-quinoxaline] | > 20 µg/mL | modest yet active proliferative state | no signs of apoptosis | significant increases in both OHC and IHC numbers | not statistically significant | variable, non-significant trend towards more HCs
2 | – | – | 0.77 ± 0.91 ×10⁻⁶ cm/s | c1ccc2nc(N3CCCC3)cnc2c1 [Qx-301, 2-(pyrrolidine)-quinoxaline] | > 20 µg/mL | modest yet active proliferative state | no signs of apoptosis | significant increases in both OHC and IHC numbers | not statistically significant | consistent, significant increase in apical HCs
